Consider one compound from ChEMBL document CHEMBL5385846, “Discovery and development of palmatine analogues as anti-NASH agents by activating farnesoid X receptor (FXR)” (Eur J Med Chem, 2023).

Activity calls are given as the source filed them. The calls are words filed in the database; no cut-off is given here.

Format in all cases: functional, organism-based
Assay [1] has as its system Mus musculus. Kind of assay: Hepatoprotective activity in CDAHFD induced C57BL/6N mouse liver injury model assessed as effect on total bilirubin level at 15 mg/kg,po qd administration for 4 weeks.
In assay [2] the test system is Mus musculus. Kind of assay: Hepatoprotective activity in CDAHFD induced C57BL/6N mouse liver injury model assessed as decrease in total cholesterol at 15 mg/kg,po qd administration for 4 weeks.
Assay [3] relates to Mus musculus. Kind of assay: Hepatoprotective activity in CDAHFD induced C57BL/6N mouse liver injury model assessed as effect on AST level at 15 mg/kg,po qd administration for 4 weeks.
Assay [4] has as its system Mus musculus. Briefly: Hepatoprotective activity in CDAHFD induced C57BL/6N mouse liver injury model assessed as effect on ALT level at 15 mg/kg,po qd administration for 4 weeks.
The subject of assay [5] is Mus musculus. Briefly: Hepatoprotective activity in CDAHFD induced C57BL/6N mouse liver injury model assessed as effect on ALP level at 15 mg/kg,po qd administration for 4 weeks.
Assay [6] has as its system Mus musculus. Briefly: Hepatoprotective activity in CDAHFD induced C57BL/6N mouse liver injury model assessed as effect on glucose level at 15 mg/kg,po qd administration for 4 weeks.
Assay [7] concerns Mus musculus. Kind of assay: Hepatoprotective activity in CDAHFD induced C57BL/6N mouse liver injury model assessed as effect on LDL level at 15 mg/kg,po qd administration for 4 weeks.
For assay [8], the system named is Mus musculus. Briefly: Hepatoprotective activity in CDAHFD induced C57BL/6N mouse liver injury model assessed as effect on LDH level at 15 mg/kg,po qd administration for 4 weeks.
Assay [9] concerns Mus musculus. Briefly: Hepatoprotective activity in CDAHFD induced C57BL/6N mouse liver injury model assessed as decrease in triglyceride level at 15 mg/kg,po qd administration for 4 weeks.
The subject of assay [10] is Mus musculus. Briefly: Hepatoprotective activity in CDAHFD induced C57BL/6N mouse liver injury model assessed as effect on HDL level at 15 mg/kg,po qd administration for 4 weeks.

On to `CC[C@H]1[C@@H](O)[C@@H]2[C@H](CC[C@]3(C)[C@@H]([C@H](C)CCC(=O)O)CC[C@@H]23)[C@@]2(C)CC[C@@H](O)C[C@@H]12`, for which the outcome with Mus musculus [1], with Mus musculus [3], in the assay on Mus musculus [4], in the assay on Mus musculus [5], in the assay on Mus musculus [7] and in the assay with Mus musculus [8] was inactive. Moreover, the result with Mus musculus [10] was inactive. Moreover, the outcome with Mus musculus [2], in the assay with Mus musculus [6] and with Mus musculus [9] was Active.
